These results are taken from PubChem BioAssay (NCI).

Test systems include 786-0 renal; CCRF-CEM leukemia; HCT-116 colon; HT29 colon; LOX IMVI melanoma; MALME-3M melanoma; NCI-H460 lung; RPMI-8226 leukemia; SF-268 CNS; SK-MEL-2 melanoma.
Common to all, as to assay: NCI tumour cell line growth inhibition, 48 h

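Cells were grown in 96-well plates and exposed to each compound for 48 hours at five concentrations; endpoints were interpolated linearly between bracketing concentrations, or set to the highest concentration if not reached. GI50 marks 50% less growth. At the TGI there is no net growth.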 Where only a bound is given, the exact number is not on record here.

As to `COC(=O)C12C3C4C1C1C2C3C41C(=O)OC(C)(C)C` (centres undefined), the TGI was > 100 µM in the experiment on 786-0 renal; > 100 µM in the experiment with CCRF-CEM leukemia; 70.3 µM in the experiment on HCT-116 colon; > 100 µM with HT29 colon; > 61.2 µM in the experiment with LOX IMVI melanoma; > 100 µM in the experiment on MALME-3M melanoma. Also, the TGI was > 100 µM with NCI-H460 lung, > 72.3 µM in the experiment on RPMI-8226 leukemia, > 100 µM with SF-268 CNS and > 100 µM in the experiment with SK-MEL-2 melanoma.

With `Cc1cc(Br)cc(C)c1NC(=O)C(=O)C(C(=O)c1ccc2ccccc2c1)C1OC(=O)c2ccccc21` (centres undefined), the TGI was 19.3 µM with 786-0 renal; 45.1 µM in the experiment on CCRF-CEM leukemia; 29.4 µM in the experiment on HCT-116 colon; 41.7 µM in the experiment on HT29 colon; 31.1 µM with LOX IMVI melanoma; 34.5 µM with MALME-3M melanoma. Besides, the TGI was 20.9 µM in the experiment on NCI-H460 lung, > 80.5 µM in the experiment on RPMI-8226 leukemia and 34.5 µM with SK-MEL-2 melanoma.

For the molecule `CC1OC(n2cc(F)c(=O)[nH]c2=O)C=CC1O` (centres undefined), the TGI with 786-0 renal is > 100 µM; with CCRF-CEM leukemia, > 77.9 µM; with HCT-116 colon it was > 100 µM; in the experiment with HT29 colon, > 100 µM; in the experiment with LOX IMVI melanoma, > 64.3 µM; in the experiment with MALME-3M melanoma, > 100 µM. Also, the TGI with NCI-H460 lung, in the experiment with RPMI-8226 leukemia, with SF-268 CNS and with SK-MEL-2 melanoma was > 100 µM throughout.

Regarding `CCOc1nc(-c2ccccc2)cc2c(O)c(-c3nnco3)[nH]c(=O)c12`, the GI50 with 786-0 renal is 6.17 µM; in the experiment with CCRF-CEM leukemia, 3.04 µM; in the experiment with HCT-116 colon, 6.07 µM; in the experiment with HT29 colon it was > 100 µM; in the experiment on LOX IMVI melanoma, 4.4 µM; in the experiment on MALME-3M melanoma, 7.58 µM. Moreover, the GI50 was 4.01 µM in the experiment on NCI-H460 lung, 4.11 µM with RPMI-8226 leukemia, 5.62 µM in the experiment with SF-268 CNS and 9.4 µM with SK-MEL-2 melanoma. Also, the TGI with 786-0 renal was 31.9 µM; in the experiment with CCRF-CEM leukemia it was > 100 µM; with HCT-116 colon, > 100 µM; with HT29 colon it was > 100 µM; with LOX IMVI melanoma, > 100 µM; in the experiment on MALME-3M melanoma, > 100 µM. Also, the TGI in the experiment on NCI-H460 lung is > 100 µM; in the experiment with RPMI-8226 leukemia, > 100 µM; in the experiment with SF-268 CNS, > 100 µM; with SK-MEL-2 melanoma, > 46.9 µM.

For `COC(=O)C(C(=O)C(=O)Nc1cccc(OC)c1)c1cnc2ccccc2n1` (centres undefined), the TGI with 786-0 renal, in the experiment on CCRF-CEM leukemia, in the experiment on HCT-116 colon, in the experiment with HT29 colon, in the experiment with LOX IMVI melanoma and with MALME-3M melanoma was > 100 µM throughout. Besides, the TGI in the experiment with NCI-H460 lung, in the experiment with RPMI-8226 leukemia, in the experiment on SF-268 CNS and with SK-MEL-2 melanoma was > 100 µM throughout.

Take `COc1ccc(N2C(=O)C(c3ccccc3)(c3ccccc3)C23C(=O)N(C)c2ccccc23)cc1` (centres undefined): the GI50 with 786-0 renal, with CCRF-CEM leukemia, in the experiment with HCT-116 colon, in the experiment on HT29 colon, with LOX IMVI melanoma and with MALME-3M melanoma was > 100 µM each time. For the same molecule, the GI50 in the experiment with NCI-H460 lung, with RPMI-8226 leukemia, in the experiment on SF-268 CNS and in the experiment on SK-MEL-2 melanoma was > 100 µM in each case. Moreover, the TGI in the experiment with 786-0 renal, with CCRF-CEM leukemia, with HCT-116 colon, in the experiment on HT29 colon, in the experiment on LOX IMVI melanoma and in the experiment with MALME-3M melanoma was > 100 µM each time. Further, the TGI in the experiment with NCI-H460 lung, with RPMI-8226 leukemia, with SF-268 CNS and in the experiment on SK-MEL-2 melanoma was > 100 µM each time.

Turning to `O=C(Nc1ccc(OS(=O)(=O)c2ccccc2)cc1)C12CC3CC(CC(C3)C1)C2`, the GI50 in the experiment with 786-0 renal is 3.8 µM; in the experiment with CCRF-CEM leukemia, 3.73 µM; in the experiment with HCT-116 colon, 2.5 µM; in the experiment with HT29 colon, 0.403 µM; in the experiment with LOX IMVI melanoma, 4.38 µM; in the experiment on MALME-3M melanoma, > 100 µM. Further, the GI50 in the experiment with NCI-H460 lung was 6.1 µM; in the experiment on RPMI-8226 leukemia, 2.15 µM; in the experiment on SF-268 CNS, > 100 µM; in the experiment on SK-MEL-2 melanoma it was > 100 µM. Moreover, the TGI was > 100 µM in the experiment on 786-0 renal; > 100 µM with CCRF-CEM leukemia; > 100 µM with HCT-116 colon; 3.69 µM in the experiment with HT29 colon; > 100 µM with LOX IMVI melanoma; > 100 µM with MALME-3M melanoma. Further, the TGI in the experiment on NCI-H460 lung, in the experiment with RPMI-8226 leukemia, in the experiment with SF-268 CNS and in the experiment on SK-MEL-2 melanoma was > 100 µM in each case.

As for `Cc1ccc(C(SCC(N)C(=O)O)(c2ccccc2)c2ccc(C)cc2)cc1` (centres undefined), the GI50 in the experiment on 786-0 renal is 2.21 µM; in the experiment on CCRF-CEM leukemia, 0.341 µM; in the experiment with HCT-116 colon it was 0.0449 µM; with HT29 colon, 0.334 µM; in the experiment with LOX IMVI melanoma, 0.602 µM; in the experiment with MALME-3M melanoma, 2.57 µM. For the same molecule, the GI50 with NCI-H460 lung is 0.307 µM; with RPMI-8226 leukemia it was 0.135 µM; with SF-268 CNS, 0.257 µM; in the experiment with SK-MEL-2 melanoma, 0.219 µM. For the same molecule, the TGI is 24.4 µM in the experiment on 786-0 renal; > 75.7 µM in the experiment on CCRF-CEM leukemia; 7.06 µM in the experiment on HCT-116 colon; 3.38 µM in the experiment on HT29 colon; 21.5 µM with LOX IMVI melanoma; 22.1 µM in the experiment on MALME-3M melanoma. Also, the TGI is 12 µM in the experiment on NCI-H460 lung, 20.6 µM in the experiment with RPMI-8226 leukemia, 23.9 µM in the experiment on SF-268 CNS and 3.88 µM in the experiment on SK-MEL-2 melanoma.

For the molecule `C[As](C)SC1OC(CO)C(O)C1O` (centres undefined), the GI50 was 0.174 µM in the experiment on 786-0 renal; 0.259 µM in the experiment with CCRF-CEM leukemia; 0.302 µM in the experiment on HCT-116 colon; 0.668 µM in the experiment with HT29 colon; 0.445 µM in the experiment on LOX IMVI melanoma; 0.0847 µM in the experiment with MALME-3M melanoma. Also, the GI50 in the experiment on NCI-H460 lung is 1.46 µM; in the experiment with RPMI-8226 leukemia it was 0.1 µM; in the experiment with SF-268 CNS, 0.998 µM; in the experiment on SK-MEL-2 melanoma, 0.708 µM. The TGI in the experiment on 786-0 renal was 0.655 µM; with CCRF-CEM leukemia it was 1.13 µM; with HCT-116 colon it was 1.24 µM; in the experiment with HT29 colon it was > 100 µM; in the experiment on LOX IMVI melanoma, 1.75 µM; in the experiment with MALME-3M melanoma, 0.65 µM. In addition, the TGI in the experiment with NCI-H460 lung came to 11.7 µM; with RPMI-8226 leukemia, 0.342 µM; in the experiment with SF-268 CNS, 5.73 µM; in the experiment with SK-MEL-2 melanoma, 2.92 µM.
